What was measured:
[1] = target: human vasopressin V1a receptor (Homo sapiens, UniProt P37288); assay: Receptor binding study, [3H]AVP displacement on CHO cell membranes, human V1a; conditions: [3H]AVP displacement, CHO cell membrane, 25° C., one hour; read-out: Human V1a Ki
Method in brief: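 Membrane binding in 50 mM Tris-HCl pH 7.4 with MgCl2 and 0.1% BSA, incubated 1 h at 25° C. Bound ligand collected by rapid filtration on glass fiber filters, washed with ice-cold buffer, and counted for radioactivity. Nonspecific binding defined with 1 μM unlabeled AVP.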

[2] = target: human vasopressin V2 receptor (Homo sapiens, UniProt P30518); assay: Receptor binding study, [3H]AVP displacement on CHO cell membranes, human V2; conditions: [3H]AVP displacement, CHO cell membrane, 25° C., one hour; read-out: Human V2 Ki
Method in brief: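 Membranes from CHO cells expressing human V2 receptor incubated with [3H]AVP (0.5-1.0 nM) and test compound at various concentrations in 50 mM Tris-HCl pH 7.4 with MgCl2 and 0.1% BSA, 1 h at 25 °C. Bound radioactivity counted after glass-fibre filtration; nonspecific binding defined with 1 μM unlabelled AVP.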

Sequence of human vasopressin V2 receptor (P30518 whole entry): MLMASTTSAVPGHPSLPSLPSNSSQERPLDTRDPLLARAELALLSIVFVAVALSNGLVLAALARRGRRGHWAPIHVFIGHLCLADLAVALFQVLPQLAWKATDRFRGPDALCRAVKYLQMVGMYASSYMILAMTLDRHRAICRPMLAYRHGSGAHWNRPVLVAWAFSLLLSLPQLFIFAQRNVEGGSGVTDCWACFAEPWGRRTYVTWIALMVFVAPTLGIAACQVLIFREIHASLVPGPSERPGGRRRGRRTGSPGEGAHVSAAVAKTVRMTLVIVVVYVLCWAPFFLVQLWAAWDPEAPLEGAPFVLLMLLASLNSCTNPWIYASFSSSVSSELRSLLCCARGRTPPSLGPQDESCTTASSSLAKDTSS
Sequence of human vasopressin V1a receptor (P37288 whole entry): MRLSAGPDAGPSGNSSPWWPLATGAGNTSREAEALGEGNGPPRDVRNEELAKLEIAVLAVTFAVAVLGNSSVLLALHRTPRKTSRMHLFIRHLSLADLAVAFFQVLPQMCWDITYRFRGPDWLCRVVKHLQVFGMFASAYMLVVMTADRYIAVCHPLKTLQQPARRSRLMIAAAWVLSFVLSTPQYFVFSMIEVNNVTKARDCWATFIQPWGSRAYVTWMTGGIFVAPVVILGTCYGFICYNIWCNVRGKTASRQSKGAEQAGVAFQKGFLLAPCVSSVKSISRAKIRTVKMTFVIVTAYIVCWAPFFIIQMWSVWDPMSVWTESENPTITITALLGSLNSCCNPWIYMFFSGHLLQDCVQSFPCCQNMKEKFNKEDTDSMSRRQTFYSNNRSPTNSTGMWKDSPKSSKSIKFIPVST

| SMILES | Ki [1] [nM] | Ki [2] [nM] |
| --- | --- | --- |
| CCCN(C)CCCOC(=O)c1cc(C(=O)N2CC[C@H](C)Nc3ccccc32)ccc1-c1ccc2[nH]ccc2c1 [Example 132, 3-[methyl(propyl)amino]propyl 2-(1H-indol-5-yl)-5-[[(4S)-4-methyl-2,3,4,5-tetrahydro-1H-1,5-benzodiazepin-1-yl]carbonyl]benzoate] | 0.25 | 172 |
| C[C@H]1CCN(C(=O)c2ccc(-c3ccc4[nH]ccc4c3)c(N3CCOCC3)c2)c2ccccc2N1 [Example 134, (4S)-1-[4-(1H-indol-5-yl)-3-(4-morpholinyl)benzoyl]-4-methyl-2,3,4,5-tetrahydro-1H-1,5-benzodiazepine] | 0.49 | 2.7 |
| C[C@H]1CCN(C(=O)c2ccc(-c3ccc4[nH]ccc4c3)c(C(=O)OCCCN3CCN(C)CC3)c2)c2ccccc2N1 [Example 136, 3-(4-methyl-1-piperazinyl)propyl 2-(1H-indol-5-yl)-5-[[(4S)-4-methyl-2,3,4,5-tetrahydro-1H-1,5-benzodiazepin-1-yl]carbonyl]benzoate] | 0.23 | 16 |
| C[C@H]1CCN(C(=O)c2ccc(-c3ccc4[nH]ccc4c3)c(OCCCN3CCC(N)CC3)c2)c2ccccc2N1 [Example 141, 1-[3-[2-(1H-indol-5-yl)-5-[[(4S)-4-methyl-2,3,4,5-tetrahydro-1H-1,5-benzodiazepin-1-yl]carbonyl]phenoxy]propyl]-4-piperidinylamine] | 0.45 | 10 |
| C[C@H]1CCN(C(=O)c2ccc(-c3ccc4[nH]ccc4c3)c(N3CCN(C)CC3)c2)c2ccccc2N1 [Example 149, (4S)-1-[4-(1H-indol-5-yl)-3-(4-methyl-1-piperazinyl)benzoyl]-4-methyl-2,3,4,5-tetrahydro-1H-1,5-benzodiazepine] | 0.29 | 1.9 |

More lines, in order of falling Ki [1], values ahead:

| Ki [1] [nM] | Ki [2] [nM] | SMILES |
| --- | --- | --- |
| 0.36 | 309 | CCCN(C)CCCOc1cc(C(=O)N2CC[C@@H](C)Nc3ccccc32)ccc1-c1ccc(NC)cc1 [Example 130, N-methyl-2′-[3-[methyl(propyl)amino]propoxy]-4′-[[(4R)-4-methyl-2,3,4,5-tetrahydro-1H-1,5-benzodiazepin-1-yl]carbonyl][1,1′-biphenyl]-4-amine] |
| 0.26 | 83 | CCCN(C)CCCOc1cc(C(=O)N2CC[C@H](C)Nc3ccccc32)ccc1-c1ccc(OC)cc1 [Example 131, N-[3-[[4′-methoxy-4-[[(4S)-4-methyl-2,3,4,5-tetrahydro-1H-1,5-benzodiazepin-1-yl]carbonyl][1,1′-biphenyl]-2-yl]oxy]propyl]-N-methyl-N-propylamine] |
| 0.23 | 34 | CCCN1CCC(OC(=O)c2cc(C(=O)N3CC[C@H](C)Nc4ccccc43)ccc2-c2ccc3[nH]ccc3c2)CC1 [Example 138] |
| 0.23 | 9.6 | CCCCN1CCN(CCOc2cc(C(=O)N3CC[C@H](C)Nc4ccccc43)ccc2-c2ccc3[nH]ccc3c2)CC1 [Example 148, (4S)-1-[3-[2-(4-butyl-1-piperazinyl)ethoxy]-4-(1H-indol-5-yl)benzoyl]-4-methyl-2,3,4,5-tetrahydro-1H-1,5-benzodiazepine] |
| 0.12 | 20 | CCN1CCC(OC(=O)c2cc(C(=O)N3CC[C@H](C)Nc4ccccc43)ccc2-c2ccc3[nH]ccc3c2)C1 (stereo partly drawn) [Example 145, 1-ethyl-3-pyrrolidinyl 2-(1H-indol-5-yl)-5-[[(4S)-4-methyl-2,3,4,5-tetrahydro-1H-1,5-benzodiazepin-1-yl]carbonyl]benzoate] |
| 0.11 | 28 | C[C@H]1CCN(C(=O)c2ccc(-c3ccc4[nH]ccc4c3)c(C(=O)OCCN(C)C)c2)c2ccccc2N1 [Example 144, 2-(dimethylamino)ethyl 2-(1H-indol-5-yl)-5-[[(4S)-4-methyl-2,3,4,5-tetrahydro-1H-1,5-benzodiazepin-1-yl]carbonyl]benzoate] |

Reference: patent publication US20080076760A1, “2,3,4,5-TETRAHYDRO-1H-1,5-BENZODIAZEPINE DERIVATIVE AND MEDICINAL COMPOSITION” (priority 2004, published 2008)
